Source: the NIST ThermoML archive (doi:10.1021/je700260f)

Settings: Liquid, Vibrating tube method

FC(C(F)(F)F)C(F)(F)F [1,1,1,2,3,3,3-heptafluoropropane]
Settings	mass density [kg/m3]
313.14 K, 30999 kPa	1493.6
313.14 K, 31036 kPa	1493.7
313.14 K, 31073 kPa	1494
313.14 K, 31110 kPa	1494.1
313.14 K, 31162 kPa	1494.3
313.14 K, 31193 kPa	1494.3
313.14 K, 31225 kPa	1494.5
313.14 K, 31252 kPa	1494.5
313.14 K, 31284 kPa	1494.6
313.14 K, 31324 kPa	1494.9
313.14 K, 31355 kPa	1494.8
313.14 K, 31397 kPa	1495.1
313.14 K, 31585 kPa	1495.6
313.14 K, 31617 kPa	1495.8
313.14 K, 31653 kPa	1495.9
313.14 K, 31696 kPa	1495.9
313.14 K, 31739 kPa	1496.2
313.14 K, 32132 kPa	1497.6
313.14 K, 32203 kPa	1497.7
313.14 K, 32369 kPa	1498.3
313.14 K, 32414 kPa	1498.5
313.14 K, 32447 kPa	1498.5
313.14 K, 32485 kPa	1498.7
313.14 K, 32523 kPa	1498.9
313.14 K, 32566 kPa	1499
313.14 K, 32604 kPa	1499
313.14 K, 32652 kPa	1499.4
313.14 K, 32736 kPa	1499.5
313.14 K, 32789 kPa	1499.7
313.14 K, 32821 kPa	1500
313.14 K, 32853 kPa	1500
313.14 K, 32900 kPa	1500.1
313.14 K, 32937 kPa	1500.2
313.14 K, 32975 kPa	1500.4
313.14 K, 33013 kPa	1500.5
313.14 K, 33094 kPa	1500.7
313.15 K, 714 kPa	1321.1
313.15 K, 733 kPa	1321.4
313.15 K, 755 kPa	1321.6
313.15 K, 777 kPa	1321.7
313.15 K, 797 kPa	1322.1
313.15 K, 819 kPa	1322.3
313.15 K, 838 kPa	1322.5
313.15 K, 871 kPa	1322.8
313.15 K, 891 kPa	1323.2
313.15 K, 917 kPa	1323.3
313.15 K, 934 kPa	1323.7
313.15 K, 963 kPa	1323.9
313.15 K, 985 kPa	1324
313.15 K, 1014 kPa	1324.4
313.15 K, 1036 kPa	1324.7
313.15 K, 1063 kPa	1325
313.15 K, 1087 kPa	1325.1
313.15 K, 1117 kPa	1325.7
313.15 K, 1146 kPa	1325.9
313.15 K, 1167 kPa	1326.1
313.15 K, 1191 kPa	1326.5
313.15 K, 1222 kPa	1326.6
313.15 K, 1249 kPa	1327
313.15 K, 1273 kPa	1327.4
313.15 K, 1296 kPa	1327.6
313.15 K, 1317 kPa	1327.7
313.15 K, 1338 kPa	1328
313.15 K, 1369 kPa	1328.3
313.15 K, 1396 kPa	1328.6
313.15 K, 1472 kPa	1329.4
313.15 K, 1496 kPa	1329.6
313.15 K, 1525 kPa	1330
313.15 K, 1550 kPa	1330.3
313.15 K, 1575 kPa	1330.4
313.15 K, 1597 kPa	1330.7
313.15 K, 1618 kPa	1331
313.15 K, 1653 kPa	1331.4
313.15 K, 1677 kPa	1331.6
313.15 K, 1698 kPa	1331.7
313.15 K, 1726 kPa	1332.2
313.15 K, 1744 kPa	1332.4
313.15 K, 1772 kPa	1332.6
313.15 K, 1793 kPa	1332.8
313.15 K, 1811 kPa	1333
313.15 K, 1836 kPa	1333.3
313.15 K, 1864 kPa	1333.4
313.15 K, 1893 kPa	1333.9
313.15 K, 1921 kPa	1334.1
313.15 K, 1946 kPa	1334.4
313.15 K, 1972 kPa	1334.7
313.15 K, 1998 kPa	1334.8
313.15 K, 2028 kPa	1335.1
313.15 K, 2049 kPa	1335.2
313.15 K, 2077 kPa	1335.6
313.15 K, 2102 kPa	1335.9
313.15 K, 2131 kPa	1336.1
313.15 K, 2153 kPa	1336.4
313.15 K, 2183 kPa	1336.7
313.15 K, 2208 kPa	1337
313.15 K, 2230 kPa	1337.2
313.15 K, 2692 kPa	1341.6
313.15 K, 2720 kPa	1342
313.15 K, 2751 kPa	1342.2
313.15 K, 2775 kPa	1342.4
313.15 K, 2803 kPa	1342.8
313.15 K, 2825 kPa	1342.9
313.15 K, 2851 kPa	1343.2
313.15 K, 2872 kPa	1343.4
313.15 K, 2905 kPa	1343.7
313.15 K, 2928 kPa	1343.9
313.15 K, 2959 kPa	1344.2
313.15 K, 2986 kPa	1344.4
313.15 K, 3012 kPa	1344.6
313.15 K, 3042 kPa	1345
313.15 K, 3072 kPa	1345.3
313.15 K, 3095 kPa	1345.4
313.15 K, 3298 kPa	1347.3
313.15 K, 3325 kPa	1347.5
313.15 K, 3356 kPa	1347.8
313.15 K, 3379 kPa	1348
313.15 K, 3402 kPa	1348.2
313.15 K, 3437 kPa	1348.6
313.15 K, 3464 kPa	1348.7
313.15 K, 3491 kPa	1349.1
313.15 K, 3518 kPa	1349.3
313.15 K, 3548 kPa	1349.5
313.15 K, 3572 kPa	1349.7
313.15 K, 3603 kPa	1350.1
313.15 K, 3625 kPa	1350.2
313.15 K, 3656 kPa	1350.5
313.15 K, 3679 kPa	1350.7
313.15 K, 3702 kPa	1350.9
313.15 K, 3737 kPa	1351.2
313.15 K, 3761 kPa	1351.4
313.15 K, 3794 kPa	1351.7
313.15 K, 3822 kPa	1352
313.15 K, 3858 kPa	1352.3
313.15 K, 3898 kPa	1352.7
313.15 K, 3926 kPa	1352.9
313.15 K, 3954 kPa	1353.2
313.15 K, 3982 kPa	1353.4
313.15 K, 4018 kPa	1353.5
313.15 K, 4043 kPa	1353.9
313.15 K, 4079 kPa	1354.3
313.15 K, 4110 kPa	1354.6
313.15 K, 4134 kPa	1354.8
313.15 K, 4167 kPa	1355
313.15 K, 4208 kPa	1355.4
313.15 K, 4360 kPa	1356.6
313.15 K, 4382 kPa	1356.8
313.15 K, 4410 kPa	1357
313.15 K, 4435 kPa	1357.3
313.15 K, 4463 kPa	1357.5
313.15 K, 4732 kPa	1359.7
313.15 K, 4757 kPa	1360
313.15 K, 4793 kPa	1360.1
313.15 K, 4811 kPa	1360.4
313.15 K, 4847 kPa	1360.6
313.15 K, 4872 kPa	1360.9
313.15 K, 4904 kPa	1361.1
313.15 K, 4929 kPa	1361.5
313.15 K, 4958 kPa	1361.6
313.15 K, 4976 kPa	1361.7
313.15 K, 5023 kPa	1362.3
313.15 K, 5048 kPa	1362.3
313.15 K, 5074 kPa	1362.5
313.15 K, 5096 kPa	1362.7
313.15 K, 5125 kPa	1363.1
313.15 K, 5148 kPa	1363.1
313.15 K, 5167 kPa	1363.4
313.15 K, 5200 kPa	1363.6
313.15 K, 5222 kPa	1363.9
313.15 K, 5259 kPa	1364
313.15 K, 5281 kPa	1364.2
313.15 K, 5308 kPa	1364.4
313.15 K, 5330 kPa	1364.6
313.15 K, 5357 kPa	1364.8
313.15 K, 5383 kPa	1365.1
313.15 K, 5409 kPa	1365.3
313.15 K, 5434 kPa	1365.4
313.15 K, 5457 kPa	1365.7
313.15 K, 5485 kPa	1365.9
313.15 K, 5508 kPa	1366.1
313.15 K, 5534 kPa	1366.3
313.15 K, 5560 kPa	1366.5
313.15 K, 5593 kPa	1366.7
313.15 K, 5616 kPa	1366.9
313.15 K, 5646 kPa	1367.1
313.15 K, 5672 kPa	1367.3
313.15 K, 5694 kPa	1367.6
313.15 K, 5717 kPa	1367.8
313.15 K, 5739 kPa	1367.9
313.15 K, 5766 kPa	1368
313.15 K, 5801 kPa	1368.3
313.15 K, 5828 kPa	1368.5
313.15 K, 5847 kPa	1368.7
313.15 K, 5870 kPa	1368.9
313.15 K, 5901 kPa	1369.2
313.15 K, 5932 kPa	1369.4
313.15 K, 5959 kPa	1369.7
313.15 K, 5987 kPa	1369.8
313.15 K, 6022 kPa	1370
313.15 K, 6049 kPa	1370.4
313.15 K, 6073 kPa	1370.5
313.15 K, 6096 kPa	1370.6
313.15 K, 6128 kPa	1370.8
313.15 K, 6163 kPa	1371.1
313.15 K, 6406 kPa	1372.9
313.15 K, 6434 kPa	1373
